# Data from patent US7691392B2 (Kosan Biosciences Incorporated, priority 2005, dated 2010).
# Values joined by “and” are separate entries in the source; they are usually repeats but may differ in a detail not shown here. Equal entries are not always repeated. “Also recorded” adds a separate entry of the source.
# Columns and labels:
# advanced solid tumors = details: patients with advanced solid tumors; cited from earlier work
# [1] = Plasma pharmacokinetics of 17-AAG and 17-AG in the open-label dose escalating trial in MM patients; details: for Cmax: iv
# Method: The total number of PK samples collected was approximately 110 mL of whole blood (7-8 tablespoons). If a patient experienced a potentially drug-related SAE, additional PK samples were collected. Blood was drawn from the contralateral arm to the infusion site using an indwelling catheter to avoid multiple needle sticks. […] The blood tube was inverted several times, and the tube placed in wet ice immediately pending separation of the plasma. If a catheter was used for blood collection, the fluid in the catheter was completely withdrawn prior to each sample collection and discarded. Plasma samples were kept on wet ice during collection and centrifugation. Plasma samples were split into two cryovials prior to freezing at −70° C.
# The PK analysis was performed as follows. […] PK parameters were calculated on plasma concentration time data by non-compartmental analysis using Kinetica version 4.3 software (Innaphase, Champs sur Marne, France). AUC was calculated by the mixed log-linear rule: the linear rule was applied to the range where concentration was ascending and the log-linear rule was applied to the range where the concentration was descending. AUClast is the area from t=0 to tlast, the last sampling time. AUCextra is the extrapolated area from AUClast to infinity and AUCtotal=AUClast+AUCextra and is also named AUC0-∞ area under the concentration-time curve from time zero to infinity. The terminal rate constant λz was calculated on at least three points on the elimination curve with values greater than the lower limit of quantitation. […] Table 5 lists the areas, Cmax, and half-life for the metabolite 17-AG (mean±one standard deviation). […] There was no dose dependency for half-life, clearance or distributive volumes for these dose administrations.
# [2] = Dose limiting toxicity and drug-related toxicities in the MM trial
# Text: Non-Hematologic toxicities comprise: (1) any≧Grade 3 non-hematologic toxicity (except Grade 3 injection site reaction, alopecia, anorexia, fatigue), (2) nausea, diarrhea and/or vomiting of Grade≧3 despite the use of maximal medical intervention and/or prophylaxis, and/or (3) treatment delay of more than 4 weeks due to prolonged recovery from a drug-related toxicity.
# The doses and schedule of study drug were as follows. […] Subsequent patient cohorts were enrolled per the escalation scheme outlined in the table below, as supported by observed toxicities. […] If one of three evaluable patients experienced a DLT, then the cohort was increased to six evaluable patients. If two or more of six evaluable patients in a cohort experienced a DLT, then the MTD was deemed to have been exceeded; all further accrual was at the previous dose level. If no more than one of the six patients experienced a DLT, then the next dose level was evaluated.
# breast cancer cells = details: exposure to 17-AAG; cited from earlier work
# Raf-1 = details: at 24 hours; cited from earlier work
# Hsp70 = experiment: Immunoblot of peripheral blood leukocytes for client proteins; format: in vivo, human
# Text: These toxicities included hepatotoxicity and gastrointestinal toxicities. The laboratory correlates included a) surface expression of insulin-like growth factor receptor-1 (IGF-1R) and b), total expression of Akt, Hsp90 and Hsp70. […] Immunoblotting analyses were used to evaluate the total levels of Akt, Hsp90 and Hsp70. […]; and b) correlation of clinical responses to 17-AAG with the degree of modulation of the biomarkers. […] Finally, peripheral blood mononuclear cells were isolated on two occasions (the first and last infusion in Cycle 1, on Days 1 and 11) prior to and 4 hours following the infusion. Cells were examined for change in client protein expression by Western Blot. Client proteins of interest include Hsp70, RAF1, LCK and CDK4 and others as indicated.
# NSCLC cells = details: exposure to 17-AAG; cited from earlier work
# [3] = system: diffuse GFP positive MM lesions; details: survival analysis; cited from earlier work
# cell kill = details: in vitro and in vivo xenograft models; cited from earlier work
# [4] = system: colon adenocarcinoma cells; details: exposure to 17-AAG; cited from earlier work
# [5] = system: MEXF 276 L melanoma cells; details: exposure to 17-AAG; cited from earlier work
# AKT = experiment: AKT+ cells in bone marrow aspirates
# metastatic melanoma = details: cited from earlier work
# [6] = dose levels studied; cited from earlier work
smiles,measurement,setting,value
"C=CCNC1=C2C[C@@H](C)C[C@H](OC)[C@H](O)[C@@H](C)/C=C(\C)[C@H](OC(N)=O)[C@@H](OC)/C=C\C=C(/C)C(=O)NC(=CC1=O)C2=O [17-AAG, 17-Allylamino-17-demethoxygeldanamycin]",objective tumor responses,advanced solid tumors,No objective tumor responses have been observed
same,"clearance CL for 17-AAG, individual patients","[1]; 220 mg/m^2, the two patients with metabolite in trough levels on Day 11",16.8 L/h/m^2 and 17.3 L/h/m^2
same,"clearance CL for 17-AAG, average for the cohort",[1]; 220 mg/m^2 cohort,25.3±9.6 L/h/m^2
same,AUCtotal,"[1]; 17-AAG 150 mg/m^2, mean ± SD","5,592 ± 757 ng/mL * h"
same,Terminal T1/2,"[1]; 17-AAG 150 mg/m^2, mean ± SD",2.19 ± 0.58 h
same,Vss,"[1]; 17-AAG 150 mg/m^2, mean ± SD",170.9 ± 41.7 L
same,clearance,"[1]; 17-AAG 150 mg/m^2, mean ± SD",915.3 ± 113 mL/min
same,AUCtotal,"[1]; 17-AAG 220 mg/m^2, mean ± SD","9,460 ± 3,788 ng/mL * h"
same,Vss,"[1]; 17-AAG 220 mg/m^2, mean ± SD",139.1 ± 45.7 L
same,Vz,"[1]; 17-AAG 220 mg/m^2, mean ± SD",171.0 ± 67.1 L
same,AUCtotal,"[1]; 17-AAG 275 mg/m^2, mean ± SD","13,803 ± 1,540 ng/mL * h"
same,Vz,"[1]; 17-AAG 275 mg/m^2, mean ± SD",159.6 ± 54.4 L
same,AUCtotal,"[1]; 17-AAG 340 mg/m^2, mean ± SD","18,997 ± 4,195 ng/mL * h"
same,Vz,"[1]; 17-AAG 340 mg/m^2, mean ± SD",174.0 ± 71.2 L
same,change of AUCtotal between Day 1 and Day 11,"[1]; 17 patients, first vs fourth infusion",no increase in AUCtotal between Day 1 and Day 11
same,dose proportionality of Cmax,[1]; 150-340 mg/m^2 17-AAG,increased in an approximately dose proportional manner
same,half-life,"[1]; human, in vivo",2.19 to 3.68 h
same,AUC(0-t),"[1]; human, in vivo, 150 mg/m2",5300 ng·h/mL
same,Vd,"[1]; human, in vivo, 150 mg/m2, Vz, 17-AAG 150 mg/m^2, mean ± SD",170 ± 30.3 L
same,AUC(0-t),"[1]; human, in vivo, 220 mg/m2",9160 ng·h/mL
same,half-life,"[1]; human, in vivo, 220 mg/m2",2.68 ± 0.99 h
same,clearance,"[1]; human, in vivo, 220 mg/m2, Clearance, 17-AAG 220 mg/m^2, mean ± SD",780 mL/min
same,AUC(0-t),"[1]; human, in vivo, 275 mg/m2",13400 ng·h/mL
same,half-life,"[1]; human, in vivo, 275 mg/m2",2.96 ± 1.34 h
same,clearance,"[1]; human, in vivo, 275 mg/m2, Clearance, 17-AAG 275 mg/m^2, mean ± SD",661 mL/min
same,Vd,"[1]; human, in vivo, 275 mg/m2, Vss, 17-AAG 275 mg/m^2, mean ± SD",123 ± 23.4 L
same,AUC(0-t),"[1]; human, in vivo, 340 mg/m2",18700 ng·h/mL
same,half-life,"[1]; human, in vivo, 340 mg/m2",3.3 ± 0.83 h
same,clearance,"[1]; human, in vivo, 340 mg/m2, Clearance, 17-AAG 340 mg/m^2, mean ± SD",595 mL/min
same,Vd,"[1]; human, in vivo, 340 mg/m2, Vss, 17-AAG 340 mg/m^2, mean ± SD",101 ± 27.7 L
same,clearance,"[1]; human, in vivo, CL, present study, overall",792 mL/min
same,clearance,"[1]; human, in vivo, Total systemic clearance, range of cohort means, across dose administrations",636 to 915 mL/min
same,Vd,"[1]; human, in vivo, distributive volume (Vss), range of cohort means, across dose administrations",123 to 171 L
same,Vd,"[1]; human, in vivo, distributive volume (Vz), range of cohort means, across dose administrations",160 to 204 L
same,Cmax,"[1]; human, in vivo, 150 mg/m2",2400 ng/mL
same,Cmax,"[1]; human, in vivo, 220 mg/m2",4670 ng/mL
same,Cmax,"[1]; human, in vivo, 275 mg/m2",6820 ng/mL
same,Cmax,"[1]; human, in vivo, 340 mg/m2",9360 ng/mL
same,Vss,"[1]; present study, overall",144.45 ± 43.51 L
same,DLT,"[2]; 150 mg/m^2, four patients",DLT was not observed in any of these four patients
same,DLT,"[2]; 220 mg/m^2, seven evaluable patients",DLT was observed in one patient; the DLT was liver infiltration of plasma cells with a Grade 3 elevated ALT
same,DLT,"[2]; 275 mg/m^2 twice weekly two of three weeks, three patients",DLT was not observed in any of these three patients; also recorded: without reaching dose limiting toxicity
same,drug-related toxicities other than the single Grade 3 elevated ALT,[2]; all dose levels,"Grade 1-2 elevated transaminases, nausea, fatigue, diarrhea, anemia, myalgias and rash"
same,effect on client proteins,breast cancer cells,depletion of steroid receptors
same,patients with Raf-1 depletion in tumor biopsies,Raf-1,4 out of 6
same,Hsp70 in peripheral blood leukocytes,"Hsp70; 220 mg/m^2 cohort, following treatment",reactive induction of Hsp70
same,"Hsp70 in PBL, immunoblot","Hsp70; two patients (275 and 340 mg/m^2), prior to and 4 h after infusion, Day 1 and Day 11",increase of Hsp70
same,effect on client proteins,NSCLC cells,depletion of erbB 1 (EGFR) and erbB2 (p185) levels
same,median overall survival,[3],significantly prolonged median overall survival
same,concentrations needed to achieve cell kill,cell kill,10 to 500 nM
same,effect on client proteins,[4],"depletion of Raf-1, c-Akt, and Erk1/2"
same,effect on client proteins,[5],depletion of Hsp90 and down-regulation of Raf-1 and erbB2
same,percent of AKT+ cells over total BM cells,"AKT; Day 11 of treatment (more than 20% prior to treatment), p=0.057, FIG. 10",less than 10%
same,decrease in percent of AKT+ cells,AKT; Day 11 versus prior to treatment,more than 10%
same,Akt / pAKT in BMAs,"AKT; screening versus Day 11, 150 and 220 mg/m^2 doses",decreased Akt; also recorded: decrease in pAKT
same,complete or partial responses,metastatic melanoma; once weekly schedule,No complete or partial responses were recorded
same,stable disease,metastatic melanoma; patients treated at 320-450 mg/m^2,two showed radiologically documented long term stable disease
same,relation of dose and area under the curve (AUC),[6],linear correlation
